From ChEMBL document CHEMBL1136596, “Four novel bis-(naphtho-gamma-pyrones) isolated from Fusarium species as inhibitors of HIV-1 integrase” (Bioorg Med Chem Lett, 2003)

Tests used:
[1] = target: T1, Human immunodeficiency virus type 1 integrase (Human immunodeficiency virus 1, UniProt Q7ZJM1); experiment: Inhibition of HIV-1 integrase in coupled transfer assay
[2] = target: T1, Human immunodeficiency virus type 1 integrase; experiment: Inhibition of HIV-1 integrase in strand transfer assay
[3] = tested on: Human immunodeficiency virus 1; experiment: Viral protection was determined in a 24 hr HIV-1 viral infectivity assay; format: functional, organism-based

T1 sequence (Q7ZJM1 whole entry): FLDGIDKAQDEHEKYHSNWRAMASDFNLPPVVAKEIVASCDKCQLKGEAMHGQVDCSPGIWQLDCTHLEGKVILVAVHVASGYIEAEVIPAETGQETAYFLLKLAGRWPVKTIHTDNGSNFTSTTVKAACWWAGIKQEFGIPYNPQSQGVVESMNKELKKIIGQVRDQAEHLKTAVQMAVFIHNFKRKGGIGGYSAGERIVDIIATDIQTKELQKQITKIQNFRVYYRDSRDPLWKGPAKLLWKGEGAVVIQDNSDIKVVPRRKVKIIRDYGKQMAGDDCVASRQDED

Structure (SMILES) | IC50 [1] [µM] | IC50 [2] [µM] | IC50 ([3]; Human immunodeficiency virus 1, 24 h) [µM] | IC50 [3] [µM]
COc1cc(OC)c2c(OC)c3c(cc2c1-c1c(OC)cc(OC)c2c(OC)c4c(cc12)OC(C)C(C)C4=O)OC(C)C(C)C3=O (configuration not stated) | 60 | > 100 | – | –
C[C@@H]1Oc2cc3c(-c4c(O)cc(O)c5c(O)c6c(cc45)O[C@H](C)[C@@H](C)C(=O)O6)c(O)cc(O)c3c(O)c2C(=O)[C@@H]1C | 3 | 9 | – | –
COc1cc(O)c2c(OC)c3c(cc2c1-c1c(OC)cc(OC)c2c(OC)c4c(cc12)OC(C)C(C)C4=O)OC(C)C(C)C3=O (configuration not stated) | 40 | > 100 | – | –
COc1cc(O)c2c(OC)c3c(cc2c1-c1c(O)cc(OC)c2c(OC)c4c(cc12)OC(C)C(C)C4=O)OC(C)C(C)C3=O (configuration not stated) | 8 | > 100 | – | –
CC(=O)Oc1cc(OC(C)=O)c2c(OC(C)=O)c3c(cc2c1-c1c(OC(C)=O)cc(OC(C)=O)c2c(OC(C)=O)c4c(cc12)OC(C)C(C)C4=O)OC(C)C(C)C3=O (configuration not stated) | 50 | > 100 | – | –
Cc1oc2cc3c(-c4c(O)cc(O)c5c(O)c6c(cc45)O[C@H](C)[C@H](C)C6=O)c(O)cc(O)c3c(O)c2c(=O)c1C | 1 | 4 | – | –
COc1cc(O)c2c(O)c3c(cc2c1-c1c(OC)cc(OC)c2c(OC)c4c(cc12)OC(C)C(C)C4=O)OC(C)C(C)C3=O (stereo in doubt; 9d) | 80 | > 100 | – | –
COc1cc(O)c2c(O)c3c(cc2c1-c1c(OC)cc(OC)c2c(OC)c4c(cc12)OC(C)C(C)C4=O)OC(C)C(C)C3=O (stereo in doubt; 9e) | 40 | > 100 | – | –
CC1Oc2cc3c(-c4c(O)cc(O)c5c(O)c6c(cc45)OC(C)C(C)C6=O)c(O)cc(O)c3c(O)c2C(=O)C1C (stereo in doubt; form 1) | 2 | 12 | 3 | –
CC1Oc2cc3c(-c4c(O)cc(O)c5c(O)c6c(cc45)OC(C)C(C)C6=O)c(O)cc(O)c3c(O)c2C(=O)C1C (stereo in doubt; form 2) | 2 | 12 | – | 2
